From a melting point compilation (Tetko et al.; mined from patent text by program, amines drawn as free bases though some values may be those of a salt)

Row | melting point | Structure (SMILES)
1 | 140 to 151 °C | CC(C(=O)c1c(O)c2cccnc2n(-c2ccccc2)c1=O)c1ccccc1 (centres undefined)
2 | 38.1 °C | CCCCCc1ccc(-c2ccc(C(C)OC(=O)CCC)cc2)cc1 (single isomer, unassigned; (+))
3 | 144 to 148 °C | CCS(=O)CCON=Cc1nn(-c2c(Cl)cc(C(F)(F)F)cc2Cl)c(N)c1S(C)=O (centres undefined)
4 | 96.5 to 97.5 °C | CCOCc1cc2cc(Cl)ccc2oc1=Nc1cccc(OC)c1
5 | 300 to 302 °C | Cc1cc(-c2ccc3c(C(N)=O)nn(-c4ccc(S(N)(=O)=O)cc4)c3c2)ccc1F
6 | 149 to 151 °C | Cn1cc(-c2ncc(-c3ccc4cc(OC(Cc5ccccc5)C(=O)O)ccc4c3)o2)c2ccccc21 (centres undefined)
7 | 99 to 105 °C | CN1CCN(c2cc(Cl)cc3c2c(=O)n(Cc2ccc(C#N)cc2)c(=O)n3Cc2ccccc2)CC1
8 | 141 to 143 °C | Cc1[nH]c(C(=O)NCc2ccc(Cl)c(Cl)c2)c(C)c1-c1nc2ccc(C(=O)c3ccccc3)cc2[nH]1
9 | 90 to 91 °C | CCOc1ccc(C2(C(=O)O)CCC2)cc1
10 | 107 to 108 °C | CC(=O)C(=NNc1ccc(OC(C)(C)C)cc1)Sc1ccc(Cl)cc1
11 | 166 to 169 °C | CC(C)C(=O)Nc1nc(Cl)c([N+](=O)[O-])c(Cl)n1
12 | 230 to 231 °C | COCCn1cc2c(n1)c(N)nc1ccccc12
13 | 165 to 167 °C | CCCc1nn(C)c2c(=O)[nH]c(-c3cc(CCC(=O)O)ccc3OCC)nc12
14 | 114 °C | OC1(c2ccc(Cl)cc2)CCN(CCNC(c2ccccc2)c2ccccc2)CC1
15 | 56 to 57 °C | COc1ccc(C(C)=O)cc1C(F)(F)F
16 | 285 to 287 °C | O=C(O)c1cc(Cl)c2cccnc2c1O
17 | 68 to 70 °C | CN1CCN(C(=O)[C@H](CC(N)=O)NC(=O)OC(C)(C)C)CC1
18 | 165 °C | O=[N+]([O-])c1ccc(SNc2nccs2)c(C(Cl)(Cl)Cl)c1
19 | 115 to 116 °C | CSc1nccc(Oc2ccc(NC(=O)c3cc(F)cc(OC4CCCC4)c3)c3ccccc23)n1
20 | 160 to 164 °C | Clc1ccc2c(Nc3ccc(CNC4CCN(Cc5ccccc5)CC4)cc3)ccnc2c1
21 | 121 to 126 °C | O=C(CC1CC2CCC1C2)NCC1CCN(c2ncccn2)CC1 (centres undefined)
22 | 209 °C | Cc1ccc(S(=O)(=O)Cc2c(-c3ccc(Cl)cc3Cl)nn(C)c2O)cc1
23 | 166 to 169 °C | N#CSCC(Cl)=C(Cl)CSC#N
24 | 54 to 55 °C | O=[N+]([O-])c1ccc(-n2cccc2)c(Cl)c1
25 | 103 to 105 °C | CCN(CC)CCNC(=O)c1ccc(I)c2cc3ccccc3nc12

Row | melting point | Structure (SMILES)
26 | 198 to 200 °C | COCC(=S)Nc1c(Cl)c(Cl)cc2nc(OC)c(OC)nc12
27 | 76.5 to 77 °C | CCCCCCNC(=O)c1cc(OC(C)=O)ccc1OC(C)=O
28 | 44 to 45.5 °C | CCOCCCCCCCCCCC(=O)O
29 | 230 °C | CNc1ccc(NC(=O)c2ccc(-c3[nH]nc4c3C(=O)c3c(NC(=O)NN5CCOCC5)cccc3-4)s2)cc1
30 | 182 to 184 °C | COc1ccc(CN2CCN(c3nc(C)c(C(N)=O)s3)C2=O)cc1F
31 | 258 to 262 °C | O=C(O)CN1C(=O)C(=Cc2c(-c3ccccc3)[nH]c3ccccc23)SC1=S
32 | 232 to 234 °C | Cc1c(N2C(=O)CCC2=O)nc(C)n2c1c(CCCl)c1ccccc12
33 | 133 to 135 °C | CCc1nc2c(C)cc(C)nc2n1Cc1ccc2c(c1)CCc1ccccc1N2Cc1ccccc1C#N
34 | 138 to 141 °C | COc1cc(N)c(Cl)cc1C(=O)NCC1CCN(CCCCNC(=O)c2cccc3ccccc23)CC1
35 | 107 to 109 °C | CC(C)(C)OC(=O)Nc1ccc(-c2cccnc2)cc1[N+](=O)[O-]
36 | 47 to 49 °C | COc1cccc2c1CCC(C#N)=C2
37 | 66 °C | CC(C)Oc1ccc(OC(C)C)c(OCCN2C(=O)c3ccccc3C2=O)c1
38 | 101 to 105 °C | COC(=O)c1ccc(N2CCC[C@H](N(Cc3cc(C(F)(F)F)cc(C(F)(F)F)c3)c3nnn(C)n3)c3cc(C)c(C(F)(F)F)cc32)cc1
39 | 193 °C | CN(Cc1ccccc1)c1cc(C(=O)O)ccc1C(N)C(=O)O (centres undefined)
40 | 190 °C | COc1ccc(CN2C(=O)C(C)(c3cc(NC=O)ccc3Cl)c3cc(Cl)ccc32)c(OC)c1 (centres undefined)
41 | 71 to 76 °C | Cc1c(Cc2ccccc2)c(=O)oc2cc(OCC3=NNN(C)N3)cc(OCC3=NNN(C)N3)c12
42 | 218 to 220 °C | CCOC(=O)c1[nH]c2cc(Cl)cc(Cl)c2c1I
43 | 279 to 280 °C | COc1ccc(-c2nc3nccnc3[nH]2)c(N(C)C)c1
44 | 204 to 206 °C | CC(=O)OC1CCN(C2c3cc4nonc4cc3OC(C)(C)C2O)C(=O)C1 (centres undefined)
45 | 133 to 136 °C | CC(C)(O)C1C(=O)N2C(C(=O)OCc3ccccc3)=C(Sc3ccccc3)CC12 (centres undefined)
46 | 201 to 203 °C | CC(C)C1(C)N=C(c2nc(O)ccc2C(=O)O)NC1=O (centres undefined)
47 | 188 to 190 °C | O=C(N1CCOCC1)N1CCN(Cc2ccc3c(c2)-c2[nH]nc(-c4ccsc4)c2C3)CC1
48 | 51 to 52 °C | O=C(CCCCOc1ccccc1O)C(F)(F)F
49 | 300 to 304 °C | O=C(O)c1cn2c3c(c(Cl)cc(Cl)c3c1=O)CCC2
50 | 185 to 188 °C | CCCCCS(=O)(=O)NC(=O)c1ccc2[nH]c(C)c(Cc3ccc(SC(C)(C)C)cc3Cl)c2c1

Row | melting point | Structure (SMILES)
51 | 105 °C | CC(C)CCNC(=O)c1ccc2c(c1)N(C(C)CN(C)C)c1ccccc1S2 (racemic)
52 | 123 to 125 °C | CCOC(=O)c1cc(OC(C)=O)c2c(c1)c1ccccc1n2C
53 | 96 °C | Cc1ccc(S(=O)(=O)N2[C@H](CCCO)CC[C@H]2c2ccc(F)cc2)cc1
54 | 172 to 178 °C | NC(CSSCCCN1C(=O)NCC1c1ccccc1)C(=O)O (centres undefined)
55 | 147 to 148 °C | Cc1cc(C)c(N2CCCCC2=S)c(Cl)c1
56 | 80 to 81 °C | O=S(=O)(Oc1ccc2ncc3c(c2c1)CCCC3)C(F)(F)F
57 | 30 to 40 °C | Nc1ccc(N)c(C(=O)c2ccccc2Cl)c1
58 | 93 to 94.5 °C | CC(c1ccc(O)cc1)(c1ccc(O)cc1)C(F)(F)F
59 | 129 to 130 °C | CNc1c([N+](=O)[O-])cc(C(C)(C)C)cc1[N+](=O)[O-]
60 | 183 to 186 °C | C#CCN1C(=O)c2cccc3cccc1c23
61 | 156 to 157 °C | CC(=O)N1CCN=C1Nc1cc(C)nn1-c1ccc(Cl)c(Cl)c1
62 | 225 to 230 °C | O=C(Nc1ccc(C(=O)N2Cc3ccccc3Cc3ccccc32)cc1)c1cc(Cl)cc(Cl)c1Cl
63 | 148 °C | Nc1cc(N2C(=O)c3ccccc3C2=O)c(F)cc1Cl
64 | > 320 °C | CCNC(=O)Nc1ccc2[nH]cc(C(=O)O)c(=O)c2c1
65 | 156 to 158 °C | O=C(Cc1cccc(C(F)(F)F)c1)NCc1cccc2c1C(=O)N(C1CCC(=O)NC1=O)C2=O (centres undefined)
66 | 61 to 63 °C | OC(c1ccccc1)c1ccccc1Cl (centres undefined)
67 | 157 to 159 °C | CCCCn1nc(C(C)=O)nc1Cc1ccc(-c2ccccc2-c2nnn[nH]2)nc1
68 | 165 to 167 °C | CSCc1cn(C)c2c(F)cccc2c1=O
69 | 188 to 190 °C | CC1(N)CCN(c2ncc3ncnc(Nc4ccc(F)c(Cl)c4)c3n2)CC1
70 | 204 to 205 °C | COc1c(Br)cc([N+](=O)[O-])cc1-c1c2ccccc2c(Br)c2sc(C)c(C)c12
71 | > 300 °C | CN(C)CC1CCCCN1C(=O)c1ccc(-c2[nH]nc3c2C(=O)c2c(NC(=O)NN4CCOCC4)cccc2-3)s1 (centres undefined)
72 | 145 °C | CCCS(=O)(=O)Nc1ccc(C(=O)c2nc(-c3cccc(C(=O)O)c3)c3ccccn23)cc1OC
73 | 320 to 325 °C | CC(C)c1ccc(NC(=O)Cn2cnc3[nH]c(=O)[nH]c(=O)c32)cc1
74 | 127 °C | CCOC(=O)C1(c2cccs2)CC(CC)=NNC1C (centres undefined)
75 | 117 to 120 °C | CC(C)(CCl)C(=O)N(Cc1ccccc1Cl)OC(=O)c1ccccc1

Row | melting point | Structure (SMILES)
76 | 76 to 80 °C | CCOC(=O)CCc1c(C)nc(CC)n(Cc2ccc(-c3ccccc3-c3nnn[nH]3)cc2)c1=O
77 | 196 to 198 °C | COc1ccccc1NC(=O)c1nc2c(s1)CN(C)CC2
78 | 236 to 237 °C | O=C(Nc1ccccc1C(=O)O)c1nnc(S)o1
79 | 167 °C | CCCCCCC1C(=O)NC2(C(O)C3CCCCC3)C(=O)OC12C (centres undefined)
80 | 181 to 182 °C | CC(C)c1cc(C(C)C)c2ncn(/C=C/C(=O)O)c(=O)c2c1
81 | 198 °C | O=C(Cn1ccnc1)c1ccc(-c2ccccc2)cc1
82 | 205 to 207 °C | NC(=O)C1CCc2cc(C(=O)c3ccccc3)c(O)cc21 (centres undefined)
83 | 155 °C | CCOC(=O)/C(=N\O[C@H]1CC[C@H](Cl)CC1)c1csc(N)n1
84 | 204 to 206 °C | CC1c2cccn2-c2ccc(Br)cc2N1S(=O)(=O)c1ccc(O)cc1 (centres undefined)
85 | 84 to 85 °C | CS(=O)(=O)OCCCCC1C(=O)Nc2ccccc21 (centres undefined)
86 | 253 °C | Cc1cc(CN2CCN(c3ccc(C(=O)NC4CC4)cc3F)CC2)cc2c1OC(C)C(=O)N2 (centres undefined)
87 | 152 to 156 °C | COC1Nc2c(ccc(C)c2O)C(=O)N2CCCC12 (centres undefined)
88 | 118 to 120 °C | COC(=O)Cc1ccc(C(=O)c2ccc(C)cc2)[nH]1
89 | 48 to 49 °C | CC(C)[C@H]1CC[C@H](C(=O)COS(=O)(=O)c2ccccc2)CC1
90 | 195 to 203 °C | CC(C)NC1=NS(=O)(=O)c2ccc(CC#N)cc2N1
91 | 138 to 140 °C | CCc1nc2c(cnn2CC)c(NC2CCOCC2)c1CNC(=O)c1cccc(C(=O)NCc2ccc(OC)c(-c3cccc(CN4CCNCC4)c3)c2)c1
92 | 94 °C | Cc1ccc(CCCCc2ccc(C(=O)C[C@@H](C)CC(=O)O)s2)cc1
93 | 145 °C | O=C(NC[C@@H](C(=O)NO)N1CCCCC1)c1ccc(OCc2cc(Cl)nc(Cl)c2)cc1
94 | 249 to 251 °C | Cc1nc(-n2ccc(OCc3ccc(F)cc3)cc2=O)sc1C(=O)NCc1ccc(F)cc1
95 | 206 to 207 °C | CCCn1nc2c(N)nc3ccccc3c2c1CCN(CC)C(N)=O
96 | 285 to 287 °C | CC1=NCN2C1=Cc1cncnc1-c1cccc(C(=O)O)c12
97 | 212 °C | O=C(c1ccccc1NCc1ccncc1)[NH+]([O-])c1cc2ccccc2cn1 (centres undefined)

Row | Structure (SMILES) | melting point
98 | O=C(Cl)c1ccncc1 | 160 °C
99 | Nc1ccccc1C(=O)c1ccc(F)cc1 | 125 to 127 °C
